For orientation: aqueous solubility means the concentration that dissolves in the medium under given conditions.

The conditions of data set [1]: cited from earlier work.
Data set [2] in a line: solubility of ATTM in solvents. It is filed as physicochemical. From the text: Preparation of Exemplary Coating Formulations: (NH4)2MoS4 (“ATTM” or ammoniumtetrathiomolybdate) as a representative compound for a pharmaceutically active copper chelating agent can be dissolved in a suitable solvent including, without limitation dimethyl acetamide, dimethylsulfoxide or tetramethylurea to provide a desired saturation concentration. […] The concentrated ATTM solution can be mixed with a variety of suitable matrix polymers commonly known to one of ordinary skill in the art, including, without limitation PVDF-HVP, PET, PLGA, PLLA, PHA, polyurethanes, polyphosphazenes, silicones and equivalents, in a suitable volume ratio to form a readily available coating formulation with a defined polymer to ATTM weight ratio per ml coating formulation. The matrix polymer solvent can be chosen to be mutually compatible with the ATTM solvent in order to avoid potential phase separation. The obtained deep red to orange solution can be centrifuged, and the supernatant filtered through a 0.22 μm PTFE filter to remove any solid residue. The finally obtained ATTM concentration can be determined via UV-Vis spectroscopy.

Data set [3] has as its system venous endothelial cell proliferation. Particulars: cited from earlier work.
A further data set deals with IL-1α. The following applies: cited from earlier work.
A further data set can be described thus: aqueous solubility. It is filed as physicochemical. On the procedure:
Solubility: Information on the actual quantitative solubility of solid Molybdenum disulfide can be sparse, and the compound can be often quoted as being insoluble in water. […] Thus, upon prolonged contact between MoS2 coated surface with an aqueous medium, a saturation concentration of 0.125-1.25 μM MoO4^2− can reasonably be expected.

Where two headings read alike, the source gives them in different places.

As for `[NH4+].[NH4+].[SH-].[SH-].[S]=[Mo]=[S]` [ATTM, Ammoniumtetrathiomolybdate; (NH4)2MoS4], the aqueous solubility entry in data set [1] (reported) is given as “at least 7 mM”. Also, in data set [2], the “solubility in acetone, acetonitrile, cyclohexanone, methylisobutylketone” value is given as “limited solubility”; the “solubility in dimethylacetamide, tetramethylurea, dimethylsulfoxide, N-methylpyrrolidone, ethylendiamine, pyridine, methanol, ethanediol and water” value was “reasonable solubility”. Further, the “systemic concentration sufficient to achieve inhibition of venous endothelial cell proliferation” value in data set [3] was 5 µM. The “concentration inhibiting the release of IL-1α” value in the data set with IL-1α is 250 nM.
As for `[S]=[Mo]=[S]` [MoS2, Molybdenum disulfide], in “aqueous solubility” (prolonged contact of MoS2 coated surface with aqueous medium, expected), the “saturation concentration of MoO4^2−” value was 0.125 to 1.25 µM. For the same compound, the “predicted maximum aqueous saturation concentration of the molybdate species (TM0)” value in “aqueous solubility” (stemming from MoS2) is 1.25 µM. Further, the aqueous solubility in data set [1] (aqueous environments) is 0.125 to 1.25 µM.
